Columns and labels:
[1] = tested on: TNFα-induced proinflammatory genes; assay: TNFα-induced pro-inflammatory gene expression by RT-qPCR in L929sA WT cells; format: cell-based, mouse; conditions: 10 µM for 1 h, then TNFa, total induction time 6 h
Method: (§1) RNA was isolated using the RNeasy Purification Kit (Qiagen) according to the manufacturer's instructions. cDNA was synthesised using a PrimeScript kit (Takara). RT-qPCR was performed using Light Cycler 480 SYBR Green I Master Mix (Roche).
(§2) PPARs play crucial roles in controlling inflammatory responses. NF-κB is a transcription factor that plays a pivotal role in the expression of multiple genes involved in the immune and inflammatory responses. To study the potential anti-inflammatory effects of the tetrahydroquinolines and quinolines of the invention, the NF-κB-dependent physiological human IL-8 promoter construct, p1481.IL8P-Luc+, which is stably integrated into L929sA cells, was tested. After transfection, cells were treated at 10 µM with 5a, 5b, 8a, or 8b prior to TNFa stimulation. […] Given the significant decrease in NF-κB-IL8P-Luc+ reporter gene activity observed after treatment with the 2- or 3-prenylated tetrahydroquinolines 5a and 5b and the 3-prenylated quinoline 8b, their potential anti-inflammatory effects at the transcriptional level for other inflammatory mediators was evaluated. To achieve this, the L929sA WT cells were treated with 5a, 5b and 8b at 10 µM for 1 h, followed by TNFa stimulation for a total induction time of 6 h. The expression of inflammatory genes was evaluated by RT-qPCR.

hPPARγ = molecular target: T1, hPPARγ (Homo sapiens, UniProt P37231); assay: PPAR transactivation assay, human chimeric PPAR/Gal4 reporter luciferase system in Cos-7 cells (PPARγ); format: cell-based; conditions: for Emax at 10 µM: COS-7, read-out: Efficacy (%) at 10 µmol/L PPARγ; for EC50: human PPARγ/Gal4, Cos-7 cells, concentration range 0.001-10 µmol/L, NA: not active
T1 sequence (P37231 238-505): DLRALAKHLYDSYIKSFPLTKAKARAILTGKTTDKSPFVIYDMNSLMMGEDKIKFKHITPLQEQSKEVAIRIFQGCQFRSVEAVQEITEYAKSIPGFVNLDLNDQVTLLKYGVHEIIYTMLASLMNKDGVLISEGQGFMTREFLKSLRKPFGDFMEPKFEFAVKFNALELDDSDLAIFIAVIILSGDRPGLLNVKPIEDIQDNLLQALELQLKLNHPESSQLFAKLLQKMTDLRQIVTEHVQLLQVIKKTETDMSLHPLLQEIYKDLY
Method: (§3) Transfections were stopped after 16 h by adding DMEM/10% FCS. Cells were detached with trypsin, re-seeded in 96-well plates for 6 h in DMEM/10% FCS, and incubated for 24 h in DMEM/0.2% FCS with increasing concentrations of the test compounds or vehicle (DMSO, 0.1% final concentration). At the end of the experiment, cells were washed once with ice-cold PBS, lysed, and luciferase and β-galactosidase activities were measured. Luciferase activity was normalised to that of the internal control, β-galactosidase. All transfection experiments were performed at least five times.
(§4) EC50 values against human PPARα/Gal4, PPARβ/δ/Gal4 and PPARγ/Gal4 receptors.

hPPARβ/δ = molecular target: T2, hPPARβ/δ (Homo sapiens, UniProt Q03181); assay: PPAR transactivation assay, human chimeric PPAR/Gal4 reporter luciferase system in Cos-7 cells (PPARβ/δ); format: cell-based; conditions: for Emax at 10 µM: COS-7, read-out: Efficacy (%) at 10 µmol/L PPARβ/δ; for EC50: human PPARβ/δ/Gal4, Cos-7 cells, concentration range 0.001-10 µmol/L, NA: not active
T2 sequence (Q03181 171-441): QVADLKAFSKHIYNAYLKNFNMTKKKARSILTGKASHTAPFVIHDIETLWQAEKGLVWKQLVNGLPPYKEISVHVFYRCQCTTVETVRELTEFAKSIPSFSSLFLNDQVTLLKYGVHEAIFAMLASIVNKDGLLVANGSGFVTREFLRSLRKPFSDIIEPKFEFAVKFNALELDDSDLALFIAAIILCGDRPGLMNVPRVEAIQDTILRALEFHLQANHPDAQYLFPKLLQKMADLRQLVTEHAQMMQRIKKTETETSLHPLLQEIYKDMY
Method: as §3, §4

hPPARα = molecular target: T3, hPPARα (Homo sapiens, UniProt Q07869); assay: PPAR transactivation assay, human chimeric PPAR/Gal4 reporter luciferase system in Cos-7 cells (PPARα); format: cell-based; conditions: for Emax at 10 µM: COS-7, read-out: Efficacy (%) at 10 µmol/L PPARα; for Emax: COS-7, read-out: efficiencies times higher than the prior art compound WY-14,643
T3 sequence (Q07869 167-468): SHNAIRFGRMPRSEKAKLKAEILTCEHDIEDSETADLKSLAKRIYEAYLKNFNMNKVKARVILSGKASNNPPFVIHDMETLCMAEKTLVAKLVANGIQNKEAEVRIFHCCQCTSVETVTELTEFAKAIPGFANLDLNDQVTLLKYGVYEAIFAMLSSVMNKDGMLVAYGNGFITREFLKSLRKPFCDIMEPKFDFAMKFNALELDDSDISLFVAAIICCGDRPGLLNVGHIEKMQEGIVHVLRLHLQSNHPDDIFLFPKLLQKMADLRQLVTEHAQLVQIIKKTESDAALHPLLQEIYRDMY
Method: as §3, §4

[2] = tested on: hPPARα, hPPARβ/δ, and hPPARγ; assay: PPAR transactivation assays, agonist profile over the three isoforms; conditions: always with partial activity on the PPARγ isoform
NF-κB-IL8P-Luc+ = assay: NF-κB-IL8P transactivation assay (TNFα-stimulated L929sA cells); format: cell-based, mouse; conditions: 10 µM, 1 h before TNF (2000 IU/ml), total induction time 6 h; compared to GW7647
Method: L929sA mouse fibroblasts were stably transfected using the calcium phosphate precipitation protocol, as described previously with p1481.IL8P-Luc+ plasmid construct. The indicated induction was performed at least in triplicates. All conditions were solvent-controlled. Subsequently, the cells were washed with PBS and lysed using TROPIX lysis buffer. Cellular luciferase levels were normalised to those of β-galactosidase (TROPIX, Bedford, MA, USA).
as §2

THP-1 cells = assay: Cytotoxicity, Annexin V-FITC/PI dual staining by flow cytometry; format: cell-based, human; conditions: 30 and 100 µM, 24 h
Method: The cytotoxicity of tetrahydroquinoline and quinoline esters 5a, 5b, 8a and 8b was evaluated at 30 and 100 µM by flow cytometry to assess cell survival using an Annexin V-FITC/PI dual staining assay. THP-1 cells (3 × 10^4 cells per well) were seeded in 24-well plates and allowed to grow overnight. The medium was then replaced and incubations with the different compounds or DMSO were performed during 24 h. Then, all cells were processed with the Annexin V-assay kit (ANXCFK7, Immunostep, Salamanca, Spain) according to the manufacturer's instruction. A Becton Dickinson LSR Fortessa cytometer (BD Biosciences, Franklin Lakes, NJ, USA) was used for samples, and cell analysis were performed using FACSDiva X20 software.
The potential cytotoxic effects of the compounds of the invention 5a, 5b, 8a, and 8b on the human macrophage cell line THP-1 were evaluated by flow cytometry to assess cell survival using an Annexin V-FITC/PI dual staining assay. The THP-1 cells were treated with concentrations of 30 and 100 µM for 24 h.

PDK4-(PPRE)3-Luc+ = assay: Pdk4 transactivation assay (PDK4-(PPRE)3-Luc+ reporter in L929sA cells); format: cell-based, mouse; conditions: 10 µM, 6 h, L929sA cells; compared to GW7647 at 1 µM
Method: Transfection of L929sA cells stably expressing reporter genes was performed using the calcium phosphate precipitation protocol according to standard procedures with a 10-fold excess of the plasmid of interest in a pGL3-basic vector containing Luc+, a modified firefly luciferase gene (Promega Biotec, Madison, Wis,) USA. USA). The Pdk4 reporter was created using an enhancer site linked to the Pdk4 promoter containing three PPRE extracted from mouse liver genomic DNA. The aforementioned plasmid construct was then introduced into a pMet7 backbone, which had previously been cloned with a luciferase gene site, using Xhol and Sacl cut sites. The resulting construct was subjected to geneticin (neomycin) antibiotic selection to isolate individual clones. A stable cell line, designated Pdk4-Luc+, was subsequently established in L929sA cells, which also contained a constitutively expressed galactosidase reporter and a neomycin selection cassette.
(§5) Pyruvate Dehydrogenase Kinase 4 gene (Pdk4), a well-known target gene of PPARs, encodes a protein that regulates the phosphorylation and inactivation of the pyruvate dehydrogenase complex in response to physiological conditions. This response switches the energy source from glucose to fatty acids to maintain blood glucose levels to, thereby, increase lipid metabolism. Because it is a well-known target gene of PPARs, the effect of the 2- and 3-prenylated esters of tetrahydroquinolines and quinolines on a Pdk4 region reported to bind PPARα, was evaluated. The L929sA cells that were stably transfected with a PDK4-(PPRE)3-Luc+ reporter gene construct were used.

Pdk4 = Pdk4 mRNA expression by RT-qPCR in L929sA WT cells; format: cell-based, mouse; conditions: 10 µM, 6 h
Method: as §1, §5

Row | SMILES | transcription of TNFα-induced proinflammatory genes [1] | Emax at 10 µM (hPPARγ) [%] | EC50 (hPPARγ) [µM] | Emax at 10 µM (hPPARβ/δ) [%] | EC50 (hPPARβ/δ) [µM] | EC50 (hPPARα) [µM] | Emax at 10 µM (hPPARα) [%] | PPAR agonist activity profile [2] | transactivation of the TNFα-dependent NF-κB-driven reporter (NF-κB-IL8P-Luc+) | cytotoxic effects (cell survival) (THP-1 cells) | transactivation of the PDK4-Luc+ indicator (PDK4-(PPRE)3-Luc+) | Emax (hPPARα) [%] | expression of Pdk4 mRNA (Pdk4)
1 | CCOC(=O)CC/C(C)=C/Cc1cc2cc(OCc3ccccc3)ccc2nc1C [Compound 8b, Ethyl (E)-6-(6-(benzyloxy)-2-methylquinolin-3-yl)-4-methylhex-4-enoate] | downregulated the transcription of TNFα-induced proinflammatory genes such as Cc/5 and II-6 | 37 | 1 | 2 | 7.9 | 2.2 | 221 | dual PPARα/γ agonist activity | can repress the transactivation of the TNFα-dependent NF-κB-driven reporter | No cytotoxic effects were observed |  |  | 
2 | C/C(=C\Cc1cc2cc(OCc3ccccc3)ccc2nc1C)CCC(=O)O [Compound 9b, (E)-6-(6-(benzyloxy)-2-methylquinolin-3-yl)-4-methylhex-4-enoic acid] |  | 25 | 0.9 | 2 | 5.1 | 1.8 | 218 | dual PPARα/γ agonist activity |  |  |  |  | 
3 | CCOC(=O)CC/C(C)=C/CCc1ccc2cc(OCc3ccccc3)ccc2n1 [Compound 8a, Ethyl (E)-7-(6-(benzyloxy)quinolin-2-yl)-4-methylhept-4-enoate] |  |  |  | 32 | 2 | 2.8 | 210 |  |  | No cytotoxic effects were observed | increased the transactivation of the PDK4-Luc+ indicator |  | 
4 | CCOC(=O)CC/C(C)=C/CC1Cc2cc(OCc3ccccc3)ccc2N(C)C1C (stereo not shown) [Compound 5b, Ethyl (E)-6-(6-(benzyloxy)-1,2-dimethyl-1,2,3,4-tetrahydroquinolin-3-yl)-4-methylhex-4-enoate] | downregulated the transcription of TNFα-induced proinflammatory genes such as Cc/5 and II-6 | 15 | 16.9 | 7 | 5.8 | 1.9 | 328 | selective PPARα | can repress the transactivation of the TNFα-dependent NF-κB-driven reporter | No cytotoxic effects were observed | increased the transactivation of the PDK4-Luc+ indicator | 300 to 400 | increased expression levels of Pdk4
5 | C/C(=C\CC1Cc2cc(OCc3ccccc3)ccc2N(C)C1C)CCC(=O)O (stereo not shown) [Compound 6b, (E)-6-(6-(benzyloxy)-1,2-dimethyl-1,2,3,4-tetrahydroquinolin-3-yl)-4-methylhex-4-enoic acid] |  | 24 | 1.7 | 35 | 5.8 | 1.3 | 461 | selective PPARα |  |  |  | 300 to 400 | 
6 | C/C(=C\CCc1ccc2cc(OCc3ccccc3)ccc2n1)CCC(=O)O [Compound 9a, (E)-7-(6-(benzyloxy)quinolin-2-yl)-4-methylhept-4-enoic acid] |  | 39 | 3.3 | 14 | 1.1 | 3.6 | 104 | dual PPARα/γ agonist activity |  |  |  |  | 
7 | C/C(=C\CCC1CCc2cc(OCc3ccccc3)ccc2N1C)CCC(=O)O (stereo not shown) [Compound 6a, (E)-7-(6-(benzyloxy)-1-methyl-1,2,3,4-tetrahydroquinolin-2-yl)-4-methylhept-4-enoic acid] |  | 36 | 3.9 | 73 | 4.6 | 2.9 | 144 | pan-PPAR agonist activity |  |  |  |  | 

Reference: patent EP4635565A1, “PRENYLATED TETRAHYDROQUINOLINES AND QUINOLINES WITH PPAR AGONIST ACTIVITY” (Fundación para la Investigación del Hospital Clínico de la …, priority 2024, dated 2025)
